The target of series [1] is T1, TG2 in Caco-2 cell lysates (Homo sapiens, UniProt P21980).
T1 construct: endogenous in cells; host or cells: Caco-2 (differentiated; IFN-γ-stimulated in the monolayer assay)
T1 sequence (P21980 1-687): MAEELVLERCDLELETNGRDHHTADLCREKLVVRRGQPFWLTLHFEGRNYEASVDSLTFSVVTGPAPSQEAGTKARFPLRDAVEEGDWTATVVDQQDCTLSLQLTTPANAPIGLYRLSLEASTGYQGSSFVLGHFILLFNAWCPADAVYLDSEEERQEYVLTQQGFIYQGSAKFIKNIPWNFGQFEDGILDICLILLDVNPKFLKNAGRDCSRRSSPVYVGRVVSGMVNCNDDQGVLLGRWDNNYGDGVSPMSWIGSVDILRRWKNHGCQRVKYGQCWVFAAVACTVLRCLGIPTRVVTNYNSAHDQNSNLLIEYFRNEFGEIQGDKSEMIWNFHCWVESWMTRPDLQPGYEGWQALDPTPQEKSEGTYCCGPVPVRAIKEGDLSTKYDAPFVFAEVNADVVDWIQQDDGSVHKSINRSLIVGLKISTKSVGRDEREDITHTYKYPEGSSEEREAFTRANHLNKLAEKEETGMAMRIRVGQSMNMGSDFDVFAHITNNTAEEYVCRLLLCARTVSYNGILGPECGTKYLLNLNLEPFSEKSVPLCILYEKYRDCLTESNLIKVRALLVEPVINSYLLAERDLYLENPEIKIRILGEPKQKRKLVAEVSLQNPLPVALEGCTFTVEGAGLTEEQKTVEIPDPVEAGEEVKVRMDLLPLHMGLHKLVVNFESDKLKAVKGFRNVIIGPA
Nature of the series: Transglutaminase activity in Caco-2 whole cell lysates (5BP cross-linking). The series is classed as biochemical. The settings on record: mean ± SD, n = 3. The method, then:
The method to investigate TG2 activity from whole cell lysates was adapted from Lin et al.. In brief, 20 µg protein per cavity on the 96-well plate were incubated in 50 mM Tris, 1 mM EDTA, 5 mM calcium chloride (pH 7.5) buffer in the presence of 500 µM 5BP (5-biotinamidopentylamine, Thermo Fisher Scientific, Langenselbold, Germany) for the indicated time. After incubation, the plate was washed three times with PBS + 0.05% Tween. After blocking with 5% BSA in PBS for 1 h, the plate was incubated with 2 µg/mL streptavidin-Alexa Fluor 488 (Thermo Fisher Scientific) in 5% BSA. After 3 washing steps with PBS + 0.05% Tween, fluorometric evaluation was performed using a Clariostar Plus (BMG Labtech) microplate reader (no well scan mode, excitation 488 nm, emission 535 nm, fixed gain: 2000).

Series [2] deals with T2, TG2 in the intestinal lamina propria (Homo sapiens, UniProt P21980).
T2 construct: from tissue; host or cells: duodenal biopsies from celiac disease patients (unfixed 400 nm cryosections, lamina propria)
T2 sequence (P21980 1-687): T1 sequence (P21980 1-687)
Nature of the series: TG2 activity in cryosections of duodenal biopsies from CD patients (5BP, confocal microscopy). The settings on record: increasing amounts of DTT in the incubation buffer. The series is classed as biochemical. The protocol: For immunofluorescence microscopic investigation of transglutaminase activity, only biopsies with minor macroscopic inflammatory signs were used. After endoscopy, biopsies were immediately washed three times in PBS and cryopreserved in polyvinylpyrrolidone sucrose at 4 °C overnight. Biopsies were mounted on specimen holders using Tissue-Tek O.C.T (Sakura Finetek, Staufen im Breisgau, Germany) compound and frozen in liquid nitrogen. For evaluation of transglutaminase activity by the post-embedding procedure, 400 nm cryosections were obtained using a cryo-ultramicrotome (Leica EM UC6, Leica, Wetzlar, Germany) and mounted on class cover slides. After three brief washes with PBS, tissue sections were incubated with the indicated concentrations of the inhibitors for 1 h in tris buffer. Then, the TG2 substrate 5BP was incubated for 1 h at 37 °C in tris buffer containing DTT at the indicated concentration. Slides were washed three times in PBS, fixed in 4% paraformaldehyde (10 min), permeabilized with 0.5% Triton (10 min) and incubated with blocking solution (0.1% cold water fish skin gelatin + 5% BSA + 5% goat serum, 10 min). Afterwards, a rabbit polyclonal antibody directed against human TG2 (Kan5, kindly provided by Dr T. Mothes, Institute of Laboratory Medicine, University Hospital Leipzig, Germany) was applied at 1:200 dilution in blocking solution overnight at 4 °C. After three washing steps (each 5 min) with PBS, Alexa Fluor-555-conjugated secondary antibody (goat-anti-rabbit, 1:200, Thermo Fisher Scientific) and Alexa Fluor-488-conjugated streptavidin (2 µg/mL, Thermo Fisher Scientific) were incubated at room temperature in the dark for 1 h. After three washes with PBS, samples were covered in ProLong Gold antifade mountant (Thermo Fisher Scientific) and sealed with clear nail polish. Sealed slides were stored in the dark at 4 °C until microscopy.
Imaging was done using a confocal laser scanning microscope (TE2000-E, Nikon, Langen, Germany) and a 60× Plan Apo (NA 1.41) immersion oil objective. The detailed acquisition settings and the corresponding macro (Image J [46]) for image processing can be accessed in the Supplementary Materials methods (S1). Five images per patient where quantified. For quantitation, mean fluorescence intensity of TG2 activity (488 nm channel) was normalized to TG2 expression (555 nm channel) within the intestinal lamina propria.

Series [3] concerns the target T3, extracellular TG2 on Caco-2 cells (Homo sapiens, UniProt P21980).
T3 construct: endogenous in cells; host or cells: Caco-2 (differentiated; IFN-γ-stimulated in the monolayer assay)
T3 sequence (P21980 1-687): T1 sequence (P21980 1-687)
The experiment in a line: Extracellular TG2 activity on confluent Caco-2 cell monolayers (5BP cross-linking). The series is classed as cell-based. The settings on record: for TG2-mediated crosslinking: 1 mM DTT, 3 h with 5BP, mean ± SD, n = 4. The protocol: The method was adapted from Yi et al.. To induce TG2 expression, Caco-2 cells were stimulated with IFN-γ 1000 IU/mL for 48 h. Then, cells were washed three times with warm PBS and incubated with the substrate 5BP for 3 h at 37 °C in 50 mM Tris and 1 mM EDTA (pH 7.5). The substances ERW1041, PX-12 and DTT were added to this solution when indicated. After incubation, cells were washed three times with PBS, fixed with 4% paraformaldehyde for 10 min and blocked with 5% BSA in PBS at 4 °C overnight. Then, cells were incubated at room temperature with streptavidin-Alexa488 (Thermo Scientific, 4 µg/mL) in 5% BSA in the dark for 1 h, followed by three washes with PBS. Fluorometric quantitation was conducted using a FLUOstar Optima microplate reader (BMG Labtech, filter settings: excitation 485 nm, emission 525 nm). Manual gain adjustment was performed, setting the well with the most intense signal as 95%. In all experiments, data were background subtracted against a control without 5BP substrate.

The next series concerns T-cell stimulation. The settings on record: cited from earlier work. The text has this: Even though our results underline the significance of TG2 inhibition, further research is needed to investigate the effects of those inhibitors on gliadin-induced inflammation. In recent studies, these inflammatory mechanisms were only partially mitigated by inhibition of TG2.
Series [4] deals with gliadin peptide uptake (P31-43 and P57-68). The settings on record: cited from earlier work. The text has this: Since TG2 is expressed on the surface of epithelial cells and plays a role in transcytosis, we aimed to investigate the effect of TG2 inhibitors on the epithelial uptake of gliadin peptides. First, we confirmed the results from Caputo et al. and Zimmermann et al. by showing that the translocation of P31-43, but not of P56-88, was inhibited by the endocytosis inhibitor MBCD [21, 37].

Another series concerns TG2 expression. The experiment in a line: Western blotting of TG2 protein expression in Caco-2 cells. The series is classed as cell-based, human. The settings on record: IFN-γ 48 h; normalized to GAPDH; n = 4. The method, then:
[…] First, cells were washed two times with cold PBS, scraped off the plate and centrifuged (60 s at 14,100× g). The cell pellet was resuspended in RIPA lysis buffer supplemented with phenylmethylsulfonyl fluoride, protease inhibitor and sodium orthovanadate (1% each), incubated for 20 min on ice and centrifuged (20 min at 14,100 gat 4 °C) afterwards. Supernatant was collected and cell debris was discarded. Protein quantitation was performed using the Pierce BCA protein assay kit (Thermo Fisher Scientific). After denaturation in Laemmli buffer containing 2-mercaptoethanol for 5 min at 95 °C, 10 µg of the protein extract per lane were loaded on a 12% SDS-gel. Electrophoresis was done for 1 h at 40 mA. Protein transfer onto PVDF membrane (0.2 µm pore size) was done using a Transblot Turbo system (Bio-Rad Laboratories) for 30 min (25 V, 1 A). The membrane was blocked for 1 h with 5% non-fat dry milk in PBS + […]. The primary antibodies (anti-TG2 (1:500): CUB7402, Abcam, Cambridge, UK; anti-GAPDH (1:5000): MAB374, Merck Millipore, Darmstadt, Germany) were incubated at 4 °C in blocking buffer overnight. […] Image processing and quantitation were performed using a ChemiDoc XRS+ imager and Image Lab software (BioRad Laboratories, Feldkirchen, Germany).
For orientation: Immunoblotting shows a protein as a band on a membrane.

Series [5] concerns transepithelial passage of P31-43 in Caco-2 cells. Nature of the series: Transepithelial transport of promofluor-conjugated gliadin peptide P31-43 across Caco-2 monolayers (fluorometry). It counts as cell-based, human. The settings on record: 3 h. The protocol: (§1) Transepithelial transport of immunogenic and toxic gliadin peptides were examined in Caco-2 cells 7–14 days after confluency. Caco-2 cells were seeded on semi-permeable transwell supports (ThinCert, culture surface: 33.6 mm², pore size: 0.4 µm) in 24-well plates (Greiner Bio One, Pleidelsheim, Germany). Prior to the transport experiments, the integrity of the cell monolayer was tested by measuring the transepithelial electric resistance (TEER) using a volt-ohm meter (Millipore, Schwalbach, Germany). Monolayers with insufficient TEER (<350 Ω/cm^2) were omitted. The synthesis and purification of promofluor-conjugated gliadin peptides were described elsewhere. Cells were either incubated with the immunogenic peptide P56-88 ([…]) or the toxic gliadin peptide P31-43 (LGQQQPFPPQQPY), 7 µg/mL each, in Hank’s balanced salt solution (HBSS) for 3 h. To investigate the role of TG2 on the transport of gliadin peptides, incubation was performed in the presence of ERW1041 and PX-12. After 3 h, basal and apical supernatants were collected, and the relative fluorescence of the basal compartment was quantified using a FLUOstar Optima (BMG Labtech) microplate reader. Background subtraction was performed against conditions, where no labeled peptides were used. Normalization was performed against conditions, where no inhibitors were used.
A general note: Caco-2 cells form a polarised layer with tight junctions and transporters.

Series [6] relates to transepithelial passage of P56-88 in Caco-2 cells. The experiment in a line: Transepithelial transport of promofluor-conjugated gliadin peptide P56-88 across Caco-2 monolayers (fluorometry). It counts as cell-based, human. The settings on record: 3 h. The method, then:
as §1

Series [7] deals with uptake of P56-88 by Caco-2 cells. The experiment in a line: Epithelial uptake of P56-88 by Caco-2 cells (confocal microscopy). The settings on record: 1 h incubation; z-stack imaging and 3D reconstruction. It counts as cell-based, human. The protocol: For microscopic evaluation, Caco-2 cells were seeded on polymer-covered µ-slides (80826, Ibidi) and incubated for 1 h with labeled gliadin peptides in the presence of TG2 inhibitors. After three washes with PBS, cells were fixed with 4% paraformaldehyde. Nuclear staining was performed for 10 min using Hoechst fluorescent stain (1:1000 in PBS). Imaging was done using a confocal laser scanning microscope (TE2000-E, Nikon) and a 60× Plan Apo (NA 1.41) immersion oil objective. Processing of z-stacks, including 3D reconstruction, was performed using ImageJ [46]. For quantitation, z-stack images were taken with the same microscope settings. Using ImageJ, maximum intensity projections were obtained of the z-stack images, and the fluorescence intensity was measured within the whole image.

[8] abbreviates: Caco-2 monolayer on transwell, A-B, 7 µg/mL in HBSS, TEER >= 350 Ω/cm^2, fluorometry.

Turning to `O[C@@H](CS)[C@@H](O)CS` (racemic) [DTT, dithiothreitol], in series [1] (protein lysate treated with 10 mM DTT for 1 h), the “TG2 activity in Caco-2 cell lysates” value was 395 ± 21%. In [2], the “effect of DTT on TG2 activity in cryopreserved tissue sections” value was “enhanced TG2 activity in the cryopreserved tissue in a dose-dependent manner”. Also, the TG2-mediated crosslinking in series [3] (IFN-γ-stimulated Caco-2 cells, not significant) worked out at 123 ± 24%; in series [3] (non-stimulated Caco-2 cells) it was 141 ± 17%.

In the case of `NCCSSCCN` [cystamine], in the series with T-cell stimulation, the “CD patients in whom T-cell stimulation was prevented” value was 50%. For the same molecule, the “effect on gliadin peptide uptake (P31-43 and P57-68)” value in series [4] is “did not show an effect”.

Regarding `CN(C)c1cccc2c(S(=O)(=O)NCCCCCN)cccc12` [monodansyl cadaverine], the “effect on gliadin peptide uptake (P31-43 and P57-68)” value in series [4] is “did not show an effect”.

As for “IFN-γ: key cytokine of the Th1-driven inflammation in CD, recognized inducer of TG2 expression”, the “TG2 expression on the protein level” value in the series with TG2 expression was “almost sevenfold increase”.

LGQQQPFPPQQPY [P31-43]: the “translocation from the apical to the basal compartment” value in series [5] (setting [8]) is reported as “detected in the basal compartment”.

For “LQLQPFPQPQLPYPQPQLPYPQPQLPYPQPQPF [P56-88]”, the “translocation from the apical to the basal compartment” value in [6] (setting [8]) is reported as “detected in the basal compartment”. For the same molecule, the “cellular localization of the peptide” value in series [7] is “localized in the supranuclear cell region”.

Regarding methyl-β-cyclodextrin [MBCD], the “transepithelial passage of P31-43 (relative basal fluorescence)” value in [5] (in the presence of MBCD, 7 µg/mL peptide apical in HBSS, normalized to no inhibitor, mean ± SD, n = 3) is 58 ± 7%. In [6] (in the presence of MBCD, 7 µg/mL peptide apical in HBSS, normalized to no inhibitor, n.s., mean ± SD, n = 3), the “transepithelial transport of P56-88 (relative basal fluorescence)” value is reported as 89 ± 13%.

B1: IFN-γ: key cytokine of the Th1-driven inflammation in CD, recognized inducer of TG2 expression (protein, UniProt P01579 24-161, looked up)
Interferon gamma: QDPYVKEAENLKKYFNAGHSDVADNGTLFLGILKNWKEESDRKIMQSQIVSFYFKLFKNFKDDQSIQKSVETIKEDMNVKFFNSNKKKRDDFEKLTNYSVTDLNVQRKAIHELIQVMAELSPAAKTGKRKRSQMLFRG
B1: the “TG2 activity in Caco-2 cell lysates” value in [1] (Caco-2 cells treated with 500 IU/mL IFN-γ for 48 h) was determined as 760 ± 259%. Further, the “increase of extracellular TG2 activity after IFN-γ stimulation” value in series [3] (1000 IU/mL IFN-γ, 48 h) is “about 4 times”.
